Assay results published in patent US8673890B2, “2,3-dihydro-1H-isoindol-1-imine derivatives useful as thrombin PAR-1 receptor antagonist” (Janssen Pharmaceutica NV, priority 2009, dated 2014).

Columns and labels:
[1] = molecular target: T1, thrombin receptor (PAR-1) (Homo sapiens, UniProt P25116); assay: FLIPR-based calcium-flux assay with human smooth muscle cells (Har peptide agonist); format: cell-based; settings: HSMC; 30 nM Har (PAR1) peptide agonist; 80-min drug incubation; multiple values = individual measurements
T1 construct: Human aortic smooth muscle cells (HSMC) were purchased from Cascade Biologics; host or cells: human aortic smooth muscle cells (HSMC)
T1 sequence (P25116 22-425): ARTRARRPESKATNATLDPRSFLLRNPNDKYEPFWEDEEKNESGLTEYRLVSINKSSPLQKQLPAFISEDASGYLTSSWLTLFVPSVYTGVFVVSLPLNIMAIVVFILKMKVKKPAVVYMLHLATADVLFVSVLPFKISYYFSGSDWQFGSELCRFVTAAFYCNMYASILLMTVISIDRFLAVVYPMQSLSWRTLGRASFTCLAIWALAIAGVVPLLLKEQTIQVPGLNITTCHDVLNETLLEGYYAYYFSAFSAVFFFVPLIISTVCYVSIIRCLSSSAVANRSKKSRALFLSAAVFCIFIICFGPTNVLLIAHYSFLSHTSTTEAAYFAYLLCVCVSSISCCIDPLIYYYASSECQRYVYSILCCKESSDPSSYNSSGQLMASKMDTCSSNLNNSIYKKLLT
Protocol: Human aortic smooth muscle cells (HSMC) were purchased from Cascade Biologics (Portland, Oreg.) and cultured in M-231 containing smooth muscle cell growth supplement and 1× Antibiotic-Antimycotic.
To determine agonist concentration for compound testing: On the day prior to the assay, 100 μL of cells (2×10^5/mL) were seeded in clear, flat-bottom black-wall, tissue culture treated polystyrene 96-well plates and incubated at 37° C., 5% CO2. On the day of the assay, 50 μL of complete dye loading solution (FLIPR Calcium 3 Kit, Molecular Devices) was added to each well containing 100 μL of culture media. The cells were incubated for 30-45 min at 37° C., in 5% CO2 before initiating the assay on the FLIPR. The agonist effect of PAR1 peptide (S-(p-F-Phe)-Har-L-Har-KY-NH2; Har=homoarginine; referred to herein as “Har” peptide) was tested and the EC50 was determined. The EC60-70 dose was used (30 nM) for compound testing.
Compound testing: On the day prior to the assay, 90 μL of cells (2.2×10^5/mL) were seeded in clear, flat-bottom black-wall, tissue culture treated polystyrene 96-well plates and incubated at 37° C., 5% CO2. On the day of the assay, the test compounds were prepared at 10× in 3% DMSO Hanks buffer and 10 μL was added to each well (final DMSO concentration of 0.3%). The cells were incubated 20 min at 37° C., 5% CO2. Culture medium containing testing compounds was dumped and the cells were washed four times with DPBS containing 0.1% of BSA and re-fed with 80 μL of growth medium. 70 μL of BD (fluorescent) dye was loaded to the cells and incubated 45 min at 37° C. incubator. The plates were equilibrated to room temperature for 15 min. 4× PAR1 peptide (30 nM final concentration) agonist plate and the cell plate were placed in FLIPR's assay chamber. 50 μL agonist was added to the cells and data was recorded for 5 min. Raw fluorescence data was exported for each well and tabulated versus time within an ASCII file. Data was then imported into Excel® and the peak response over basal level was determined. The percent inhibition for each test compound was calculated by the changes of fluorescent density as a % inhibition of the control Har peptide response to obtain an IC50.
(§1) Representative compounds of the present invention were tested according to the procedure described in Biological Example 1 above, with results in Table 8 below. In Table 8 below, where multiple values are listed for a particular compound, said numbers represent individual measurements (tests) for said compound.

washed platelets [2] = assay: Har peptide-induced platelet aggregation in washed platelets; format: cell-based; settings: Homo sapiens
Protocol: (§2) Platelet aggregation studies were performed according to the method of Bednar et al. (Bednar, B., Condra, C., Gould, R. J., and Connolly, T. M., Thromb. Res., 77:453-463 (1995)). Platelet-rich plasma (PRP) concentrates prepared from healthy volunteers who were aspirin free for at least 7 days by venipuncture using ACD-A as anticoagulant was purchased from Biological Specialties, Inc. (Colmar, Pa.). PRP was centrifuged at 730 g for 15 min. The platelet pellet was washed twice in CGS buffer (13 mM sodium citrate, 30 mM glucose, 120 mM NaCl, pH 6.5) containing 1 U/ml apyrase (grade V, Sigma-Aldrich, St. Louis, Mo.), 1 mM EGTA, and re-suspended in Tyrode's buffer (140 mM NaCl, 2.7 mM KCl, 12 mM NaHCO3, 0.76 mM Na2HPO4, 5.5 mM dextrose, 5.0 mM HEPES, 0.2% BSA, pH 7.4). The platelets were diluted to 3×10^8 platelets/ml and kept >45 min at 37° C. before use. 105 μl of washed platelets, 2 mM CaCl2 and […] of fibrinogen (for PAR-1 peptide-induced platelet aggregation only) were added to a 96-well microliter plate. Platelet aggregation was initiated by the addition of serial concentrations of Har peptide or thrombin (Alpha; American Diagnostica, Cat. # 470HT, 2,500 NIH Units/mg). Buffer was added to one set of control wells. The assay plate was stirred constantly and intermittently placed in a microplate reader (Softmax, Molecular Devices, Menlo Park, Calif.) to read optical density (650 nm) at 0 and 5 minutes after the addition of the compound solutions. Aggregation was calculated as the decrease in optical density between the time 0- and 5-min measurements and expressed as % of aggregation.
(§3) For the inhibition assay, platelet aggregation measurements were conducted as described, with the additional step of test compound addition. Compounds were prepared in 100% DMSO and stored. On the day of the experiment, the compounds were diluted in the Tyrode's buffer containing 3% of DMSO as a 10× working solution. 15 μl of test compound solutions were added to 105 μl of platelets 5 min prior to CaCl2 and fibrinogen additions. Platelet aggregation was initiated by the addition of agonist shown to achieve 60-70% aggregation. Antagonist potency was estimated as a % inhibition of the control Har peptide or thrombin response to obtain an IC50.
as §1, with “2” for “1”, “9” for “8”, “9” for “8 below,”

washed platelets [3] = assay: Thrombin-induced platelet aggregation in washed platelets; format: cell-based, human; settings: Homo sapiens, Platelet
Protocol: as §2, §3
as §1, with “2” for “1”, “9” for “8”, “9” for “8 below,”

[4] = tested on: platelets in platelet-rich plasma; assay: Har peptide-induced platelet aggregation in platelet-rich plasma; format: cell-based, human; settings: Homo sapiens, Platelet, multiple values = individual measurements
Protocol: (§4) The procedure for this assay is similar to that described in Biological Example 2, above. Briefly, platelet aggregation studies were performed according to the method of Bednar et al. (Bednar, B., Condra, C., Gould, R. J., and Connolly, T. M., Thromb. Res., 77:453-463 (1995)). Platelet-rich plasma (PRP) concentrates prepared from healthy volunteers who were aspirin free for at least 7 days by venipuncture using EDTA as anticoagulant was purchased from Biological Specialties, Inc. (Colmar, Pa.). PPP (platelet-poor-plasma) was obtained by centrifugation of PRP at Max (3,000 rpms) for 15 min at room temperature. PRP was diluted to yield platelet count of 300×10^3 platelets/μL with PPP. For thrombin induced platelet aggregation: 118 μL of 500 mM GPRP-NH2 was added to 12 mL of 300×10^3 platelets before using (to clean the fibrinogen in the plasma.) GPRP was added just before the experiment. 15 μL of test compound solutions were added to 120 μL of platelets 5 min prior the agonist additions. Platelet aggregation was initiated by the addition of agonist shown to achieve 60-70% aggregation. Antagonist potency was estimated as a % inhibition of the control Har peptide or thrombin response to obtain an IC50.
(§5) Where multiple values are listed for a particular compound, said numbers represent individual measurements (tests) for said compound.

[5] = tested on: platelets in platelet-rich plasma; assay: Thrombin-induced platelet aggregation in platelet-rich plasma; format: cell-based, human; settings: multiple values = individual measurements
Protocol: as §4, §5

IC50 [1]: 0.58 µM
IC50 (washed platelets [2]): 0.309 µM
IC50 (washed platelets [3]): > 10 µM
IC50 [4]: 2060 nM
IC50 ([5]; Homo sapiens, Platelet): > 10000 nM
IC50 [5]: > 10000 nM
SMILES: COc1c(C(C)(C)C)cc(C(=O)CN2Cc3cc4c(cc3C2=N)OCc2cccnc2CO4)cc1C(C)(C)C [Compound 76]
